According to publication PMC9969401, “Discovery of 2-(3-Benzamidopropanamido)thiazole-5-carboxylate Inhibitors of the Kinesin HSET (KIFC1) and the Development of Cellular Target Engagement Probes” (Journal of Medicinal Chemistry, 2023):

What was measured:
DLD1 cells (4NCA and 4N) = format: cell-based; settings: human
Method: (§1) Inhibition of HSET-mediated clustering was measured using a phenotypic assay measuring the formation of multipolar metaphase spindles in DLD1 cells with (4NCA) or without (4N) centrosome amplification. 4NCA cells were generated by treating 2N DLD1 cells with 2 μΜ DCB for 24 h, washed, and released in growth media for 24 h. 4N and 4NCA DLD1 cells were plated in 96-well ibidi μ-Clear plates (IB-89626, ibidi) with a no. 1.5 polymer coverslip bottom with optimal imaging properties. To enrich the mitotic population, cells were first treated for 3.5 h with 8 μM pro-TAME (I-440-01M, R&D system), an inhibitor of APC/C that transiently arrests cells in metaphase without affecting the structure of the spindle. Following the initial arrest, cells were treated with HSET compounds in the presence of 8 μM MG-132 (S2619, SelleckChem), a proteasome inhibitor that helps to maintain the metaphase arrest, where the number of spindle poles/cell can be optimally quantified by an automated segmentation analysis.
(§2) Cells were then fixed in methanol and stained for 3 h for mitotic pole marker aurora A (1:1000 610939 mouse anti-IAK1, BD Biosciences) and phosphorylated histone H3 (1:1500 ab47297 anti-histone H3 pS10, Abcam) as a marker of mitotic cells in 1.5% FBS in PBS. Following primary antibody treatment, cells were incubated with secondary antibodies Alexa Fluor 488 goat antimouse and Alexa Fluor 555 goat antirabbit (1:1500, A11029 and A21429, respectively, Life Technologies) together with 1 μg/mL DAPI (D9542, Sigma) in 1.5% FBS in PBS. Image acquisition was performed at 10× using the GE INCELL 2200 High Content Imaging System (Cytiva) and analyzed using the InCell Investigator software. Mitotic cells were identified by high pHH3 staining and were scored as multipolar if they had more than two mitotic spindle poles. The percentage of multipolar mitoses was calculated by dividing the number of multipolar mitoses by the total of all visible mitoses in one well of a 96-well plate (n > 100 for each replicate, two replicates per concentration point).
3. […]

[1] = molecular target: T1, recombinant full-length HSET (Homo sapiens, UniProt Q9BW19); experiment: ADP-Glo HSET assay (500 μM ATP); format: biochemical; settings: high ATP concentration of 500 μM; single determination or mean of two
T1 construct: 5 nM full-length human N-terminal His-tag HSET; His-tag (N)
T1 sequence (Q9BW19 1-673): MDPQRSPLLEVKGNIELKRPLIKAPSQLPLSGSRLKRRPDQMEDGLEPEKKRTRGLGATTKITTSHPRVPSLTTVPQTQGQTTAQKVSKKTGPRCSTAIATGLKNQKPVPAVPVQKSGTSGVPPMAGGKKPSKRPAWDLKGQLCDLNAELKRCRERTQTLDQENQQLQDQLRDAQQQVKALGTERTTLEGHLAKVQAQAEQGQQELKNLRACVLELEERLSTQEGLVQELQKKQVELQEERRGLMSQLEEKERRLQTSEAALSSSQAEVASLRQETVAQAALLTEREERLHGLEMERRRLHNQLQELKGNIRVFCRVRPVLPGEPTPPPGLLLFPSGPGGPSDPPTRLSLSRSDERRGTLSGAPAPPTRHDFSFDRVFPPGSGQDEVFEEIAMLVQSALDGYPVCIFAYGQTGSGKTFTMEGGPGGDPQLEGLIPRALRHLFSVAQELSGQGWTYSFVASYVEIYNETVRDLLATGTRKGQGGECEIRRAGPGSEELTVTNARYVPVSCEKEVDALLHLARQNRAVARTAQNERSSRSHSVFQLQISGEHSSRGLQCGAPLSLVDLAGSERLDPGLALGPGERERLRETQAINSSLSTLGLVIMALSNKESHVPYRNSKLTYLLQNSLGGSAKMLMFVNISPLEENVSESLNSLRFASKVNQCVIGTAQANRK
Method: (§3) The HSET or Eg5 ATPase activity was measured using the ADP-Glo Kinase Assay kit (Promega, V9102). The assays were run using final concentrations of 5 nM full-length human N-terminal His-tag HSET or 4 nM GST-tagged Eg5 motor domain protein (Cytoskeleton, EG01) and an assay buffer containing 20 mM HEPES pH 6.8, 10 mM MgCl2, 0.25 mM EGTA, 0.4 mM Triton X-100, and 1 mM DTT. Preformed microtubules (Universal Biologicals Cambridge, bovine MT001-XL, or porcine MT002-XL), which were reconstituted in 15 mM PIPES pH 7, 1 mM MgCl2, and 20 μM paclitaxel, were present at a final assay concentration of 70 μg/mL. A reaction volume of 5 μL was used in Proxiplate 384 plus white assay plates (PerkinElmer, 6008280). To measure compound inhibition, 100 nL of compound dissolved in DMSO or DMSO alone was preincubated with the HSET and microtubules for 10 min before 3 μM Ultra-Pure ATP was added to start the ATPase reaction for the 3 μM ATP HSET assay. For the 500 μM ATP HSET assay, the addition of 500 μM Ultra-Pure ATP was used. For the Eg5 ATPase assay, 4.8 μM Ultra-Pure ATP was used. All reactions were incubated at 25 °C for 80 min and then stopped by the addition of 5 μL of the ADP-Glo reagent. 10 μL of Kinase Detection Reagent was then added after a further 45 min of incubation. The luminescence was read after 45 min on a PheraStar FSX plate reader (BMG Labtech). The data processing was performed using Dotmatics Studies software package. Percentage inhibition was determined based on normalization to high controls (0% inhibition, all reagents with 100 nL of DMSO alone) and low controls (100% inhibition […], without HSET). The IC50 values for each compound were determined using a four-parameter logistic curve fit of % inhibition versus concentration.

[2] = molecular target: T1, recombinant full-length HSET; experiment: ADP-Glo HSET assay (3 μM ATP), microtubule-stimulated ATPase; format: biochemical; settings: for IC50: preformed microtubules, 3 μM ATP, read-out: HSET ADP-Glo IC50
In short: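 His-tagged full-length HSET (5 nM) or GST-Eg5 motor domain (4 nM), with 70 μg/mL paclitaxel-stabilised microtubules in HEPES pH 6.8 buffer, was preincubated with compound for 10 min. ATP was then added (3 or 500 μM for HSET, 4.8 μM for Eg5), followed by 80 min at 25 °C and ADP-Glo luminescence. IC50 was fitted with a four-parameter logistic.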

[3] = molecular target: T2, GST-tagged Eg5 motor domain (Homo sapiens, UniProt P52732); experiment: ADP-Glo Eg5 assay (4.8 μM ATP); format: biochemical; settings: preformed microtubules, 4.8 μM ATP (Table 4)
T2 construct: 4 nM GST-tagged Eg5 motor domain protein (Cytoskeleton, EG01); purchased Cytoskeleton EG01
T2 sequence (P52732 18-359 limits assumed): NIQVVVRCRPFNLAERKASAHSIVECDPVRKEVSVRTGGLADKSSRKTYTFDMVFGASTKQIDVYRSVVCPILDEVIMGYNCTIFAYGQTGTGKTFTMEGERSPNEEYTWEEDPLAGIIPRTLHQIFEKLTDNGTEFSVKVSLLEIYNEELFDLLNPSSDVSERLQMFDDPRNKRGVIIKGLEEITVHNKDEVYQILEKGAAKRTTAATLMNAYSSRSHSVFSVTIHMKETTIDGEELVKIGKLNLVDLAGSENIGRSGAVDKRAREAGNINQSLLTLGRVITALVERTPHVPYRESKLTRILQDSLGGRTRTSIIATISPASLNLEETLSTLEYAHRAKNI
Method: as §3

[4] = tested on: centrosome-amplified (4NCA) DLD1 cells; experiment: Multipolar spindle assay (4NCA cell line); format: cell-based, human
Source text: (§4) The cellular models consisted of chromosomally stable human colon cancer DLD1 diploid (2N) and tetraploid (4N) cells, along with tetraploid centrosome -amplified (4NCA) DLD1 cells and DLD1 HSET knockout (KO) cells. DLD1 2N and 4N cells were generated and characterized as previously described.[27],[41],[42] In order to generate 4NCA cells, we used dihydro-cytochalasin B (DCB) to transiently block cytokinesis and induce tetraploidisation and centrosome amplification in DLD1 cells. Centrosome amplification in 4NCA cells is transient and therefore they were generated from 2N cells for each run of the assay.[27] The DLD1 HSET KO cells were knockout clones generated by CRISPR and validated by sequencing to have a homozygous deletion in the KIFC1 gene.
as §1, §2

[5] = tested on: non-centrosome amplified DLD1 (4N) cells; experiment: Multipolar spindle assay (4N cell line); format: cell-based, human
Source text: as §4, §1, §2

[6] = molecular target: T3, full-length HSET (FL HSET) (Homo sapiens, UniProt Q9BW19); experiment: Fluorescence polarization probe Kd determination; format: binding
T3 construct: 5 nM full-length human N-terminal His-tag HSET; His-tag (N)
T3 sequence (Q9BW19 1-673): T1 sequence (Q9BW19 1-673)
Method: Steady-state fluorescence polarization binding assays were performed using the fluorescence-tagged probe 37. All assays were performed in a black ProxiPlate-384 Plus plate (PerkinElmer, 6008260) in a 10 μL volume in buffer containing 20 mM HEPES pH 7.5, 200 mM NaCl, 1 mM TCEP, 10 mM MgCl2, 0.1 mM Triton X-100, and 5% glycerol (v/v). Full-length human N-terminal His-tag HSET was used, with a final concentration of 2.5 nM 37 probe. The assays were sealed and incubated in the dark at 25 °C and then the FP signal was read on an EnVision multimode plate reader (PerkinElmer Life Sciences) using excitation at 620 nm and parallel and perpendicular emissions at 688 nm. All data processing was done using Prism (GraphPad Software).
For the probe Kd determinations, FL HSET final concentrations were used between 2000 and 0.5 nM. When present, preformed microtubules (Universal Biologicals Cambridge, bovine MT001-XL or porcine MT002-XL), which were reconstituted in 15 mM PIPES pH 7, 20 μM paclitaxel, or reconstitution buffer alone, were preincubated with HSET for 10 min and then added to the probe. The plate was read after 3 h of incubation in the dark at 25 °C. Kd values were determined using a 1:1 site binding model of the fluorescence polarization versus protein concentration.

SMILES | concentration at which cellular toxicity observed (DLD1 cells (4NCA and 4N)) [µM] | IC50 [1] [nM] | LE ([2]; LE = −1.4Log(IC50 [M])/number of non-hydrogen atoms (Table 1)) | LLE ([2]; LLE = −Log(IC50 [M]) – cLogP (MoKa) (Table 1)) | IC50 ([2]; mean (±SD) n ≥ 3 (Table 4)) [nM] | IC50 ([2]; mean (±SD) n ≥ 3, >200 from a single determination (Table 1)) [nM] | IC50 [3] [µM] | % multipolarity above baseline @ 15 μM (4NCA cells) ([4]; 15 μM, 4NCA DLD1 cells (Table 4)) [%] | % multipolarity above baseline @ 15 μM (4NCA cells) ([4]; 15 µM, 4NCA cells, supplementary CSV) [%] | increase in mitotic spindle multipolarity (4NCA) ([4]; 15 μM, centrosome-amplified (4NCA) DLD1 cell line) [%] | LE ([2]; LE = −1.4Log(IC50 [M])/number of non-hydrogen atoms (Table 2)) | LLE ([2]; LLE = −Log(IC50 [M]) – cLogP (MoKa) (Table 2)) | IC50 ([2]; mean (±SD) n ≥ 3, >200 from a single determination (Table 2)) [nM] | % Multipolarity above baseline @ 15 mM (4N cells) ([5]; 15 μM, 4N cells, supplementary CSV) [%] | effect on multipolar mitoses (4N), in words ([5]; 15 μM, non-centrosome amplified DLD1 (4N) cell line) | % multipolarity above baseline @ 15 μM (4N cells) ([5]; 4N DLD1 cells (Table 4)) [%] | Kd ([6]; FL HSET + MT buffer only) [nM] | Kd ([6]; isolated full-length HSET, no microtubules) [nM] | IC50 ([2]; mean (±SD) n ≥ 3 (37 n = 2, 38 single determination) (Table 3)) [nM]
CCCc1cc(C(=O)N[C@H](Cc2ccc(-c3cccc(OC(F)(F)F)c3)nc2)C(=O)N[C@@H]2CCNC2)sc1C [Compound 1, 5-Methyl-6N-((R)-1-oxo-1-((R)-pyrrolidin-3-ylamino)-3-(6-(3-(trifluoromethoxy)phenyl)pyridin-3-yl)propan-2-yl)-4-propylthiophene-2-carboxamide, reference compound] | 6 | 825 | 0.25 | 1.5 | 171 | 171 | 35.6 | – | – | – | – | – | – | – | – | – | – | – | –
CCOC(=O)c1sc(NC(=O)CCNC(=O)c2cccc(-c3noc(C)n3)c2)cc1C [Compound 26, Ethyl 3-Methyl-5-(3-(3-(5-methyl-1,2,4-oxadiazol-3-yl)benzamido)propanamido)thiophene-2-carboxylate] | – | 332 | – | – | 93 | – | > 200 | 13 | 13 | ~10 | 0.32 | 3.7 | 93 | 1 | no increases in multipolar mitoses | 1 | – | – | –
CCCOC(=O)c1sc(NC(=O)C[C@H](CCCNC(=O)CCCCC[N+]2=C(/C=C/C=C/C=C3/N(C)c4ccc(S(=O)(=O)O)cc4C3(C)C)C(C)(C)c3cc(S(=O)(=O)O)ccc32)NC(=O)c2cccc(-c3noc(C)n3)c2)nc1C [Compound 37, 3,3-Dimethyl-1-(6-(((S)-4-(3-(5-methyl-1,2,4-oxadiazol-3-yl)benzamido)-6-((4-methyl-5-(propoxycarbonyl)thiazol-2-yl)amino)-6-oxohexyl)amino)-6-oxohexyl)-5-sulfo-2-((1E,3E)-5-((E)-1,3,3-trimethyl-5-sulfoindolin-2-ylidene)penta-1,3-dien-1-yl)-3H-indol-1-ium] | – | – | – | – | – | – | – | – | – | – | – | – | – | – | – | – | 675 ± 148 | 371 | 257
